From paper PMC11440591 (Journal of Medicinal Chemistry, 2024)
Where two headings read alike, the source gives them in different places.

What was measured:
in vitro [1] = conditions: chlorocebus sabaeus
in vitro [2] = conditions: CD-1, mouse, microsomes, pH 7.4
hERG potassium channel [3] = target: T1, hERG potassium channel (Homo sapiens, UniProt Q12809); assay: cell-based
[4] = tested on: VSV-G-pseudotype virus (pVSV-G); assay: microbe, parasite or virus in culture; format: cell-based; conditions: Vesicular stomatitis virus, read-out: %inh@10µM (pVSV-G)
in vivo [5] = conditions: male, BALB/c, mouse
in vivo [6] = conditions: both, C57BL/6, mouse, po
[7] = target: EBOV-GPcl/NPC1-domain C interaction (Zaire ebolavirus, UniProt Q05320); format: binding, EBOV; Homo sapiens
Nav1.5 = Nav1.5 (Homo sapiens, UniProt Q14524); assay: in vitro
in vitro [8] = conditions: human, microsomes, pH 7.4
[9] = tested on: pseudotypes with the SUDV envelope (pSUDV); assay: microbe, parasite or virus in culture; format: cell-based; conditions: Sudan ebolavirus, read-out: EC50 (pSUDV)
[10] = tested on: wild-type Zaire EBOV Mayinga 1976 strain (EBOV May); assay: microbe, parasite or virus in culture; conditions: Zaire ebolavirus, Vero C1008, 72 h, read-out: EC50 (EBOV May)
[11] = male, BALB/c, mouse, in vivo
[12] = tested on: EBOV-GP-pseudotyped virus (pEBOV); assay: microbe, parasite or virus in culture; conditions: Vesicular stomatitis virus, Vero C1008, 24 h, read-out: EC50 (pEBOV)
hERG potassium channel [13] = target: T1, hERG potassium channel; assay: in vitro
EBOV = conditions: cited from earlier work
VeroE6 cells = conditions: cited from earlier work
[14] = tested on: EBOV-GP-pseudotyped virus (pEBOV)
[15] = tested on: wild-type Zaire EBOV Mayinga 1976 strain (EBOV May)
EBOV like particles = conditions: cited from earlier work

T1 sequence (Q12809 whole entry): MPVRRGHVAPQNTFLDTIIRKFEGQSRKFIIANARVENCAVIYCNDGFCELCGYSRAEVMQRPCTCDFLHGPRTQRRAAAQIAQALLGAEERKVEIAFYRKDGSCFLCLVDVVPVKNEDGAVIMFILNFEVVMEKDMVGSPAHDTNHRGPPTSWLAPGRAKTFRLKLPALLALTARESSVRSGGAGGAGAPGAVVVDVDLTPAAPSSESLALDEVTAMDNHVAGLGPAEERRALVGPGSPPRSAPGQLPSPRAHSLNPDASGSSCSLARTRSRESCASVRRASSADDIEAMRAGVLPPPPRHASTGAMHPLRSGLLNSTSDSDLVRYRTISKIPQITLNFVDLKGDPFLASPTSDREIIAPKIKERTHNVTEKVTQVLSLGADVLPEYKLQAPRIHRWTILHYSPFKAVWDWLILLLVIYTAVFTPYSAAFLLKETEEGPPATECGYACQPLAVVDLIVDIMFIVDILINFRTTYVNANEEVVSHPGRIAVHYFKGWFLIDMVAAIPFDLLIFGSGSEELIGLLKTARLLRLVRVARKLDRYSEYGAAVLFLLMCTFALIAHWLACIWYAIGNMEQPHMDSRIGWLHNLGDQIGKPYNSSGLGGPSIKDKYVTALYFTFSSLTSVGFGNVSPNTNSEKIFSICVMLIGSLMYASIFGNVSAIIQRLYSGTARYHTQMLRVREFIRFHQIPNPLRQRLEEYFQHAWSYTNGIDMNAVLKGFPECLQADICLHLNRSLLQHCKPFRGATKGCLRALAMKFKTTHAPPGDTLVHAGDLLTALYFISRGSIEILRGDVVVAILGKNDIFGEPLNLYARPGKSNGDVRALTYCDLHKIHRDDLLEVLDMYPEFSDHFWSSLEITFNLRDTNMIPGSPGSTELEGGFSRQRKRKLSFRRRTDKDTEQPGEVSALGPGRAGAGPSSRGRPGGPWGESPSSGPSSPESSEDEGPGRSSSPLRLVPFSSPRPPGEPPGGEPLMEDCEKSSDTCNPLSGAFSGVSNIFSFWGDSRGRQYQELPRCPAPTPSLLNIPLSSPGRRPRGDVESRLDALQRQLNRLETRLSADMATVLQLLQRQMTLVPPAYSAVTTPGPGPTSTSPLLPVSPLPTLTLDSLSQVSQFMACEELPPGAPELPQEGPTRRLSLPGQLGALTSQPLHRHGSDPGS
Sequence of Nav1.5 (Q14524 whole entry): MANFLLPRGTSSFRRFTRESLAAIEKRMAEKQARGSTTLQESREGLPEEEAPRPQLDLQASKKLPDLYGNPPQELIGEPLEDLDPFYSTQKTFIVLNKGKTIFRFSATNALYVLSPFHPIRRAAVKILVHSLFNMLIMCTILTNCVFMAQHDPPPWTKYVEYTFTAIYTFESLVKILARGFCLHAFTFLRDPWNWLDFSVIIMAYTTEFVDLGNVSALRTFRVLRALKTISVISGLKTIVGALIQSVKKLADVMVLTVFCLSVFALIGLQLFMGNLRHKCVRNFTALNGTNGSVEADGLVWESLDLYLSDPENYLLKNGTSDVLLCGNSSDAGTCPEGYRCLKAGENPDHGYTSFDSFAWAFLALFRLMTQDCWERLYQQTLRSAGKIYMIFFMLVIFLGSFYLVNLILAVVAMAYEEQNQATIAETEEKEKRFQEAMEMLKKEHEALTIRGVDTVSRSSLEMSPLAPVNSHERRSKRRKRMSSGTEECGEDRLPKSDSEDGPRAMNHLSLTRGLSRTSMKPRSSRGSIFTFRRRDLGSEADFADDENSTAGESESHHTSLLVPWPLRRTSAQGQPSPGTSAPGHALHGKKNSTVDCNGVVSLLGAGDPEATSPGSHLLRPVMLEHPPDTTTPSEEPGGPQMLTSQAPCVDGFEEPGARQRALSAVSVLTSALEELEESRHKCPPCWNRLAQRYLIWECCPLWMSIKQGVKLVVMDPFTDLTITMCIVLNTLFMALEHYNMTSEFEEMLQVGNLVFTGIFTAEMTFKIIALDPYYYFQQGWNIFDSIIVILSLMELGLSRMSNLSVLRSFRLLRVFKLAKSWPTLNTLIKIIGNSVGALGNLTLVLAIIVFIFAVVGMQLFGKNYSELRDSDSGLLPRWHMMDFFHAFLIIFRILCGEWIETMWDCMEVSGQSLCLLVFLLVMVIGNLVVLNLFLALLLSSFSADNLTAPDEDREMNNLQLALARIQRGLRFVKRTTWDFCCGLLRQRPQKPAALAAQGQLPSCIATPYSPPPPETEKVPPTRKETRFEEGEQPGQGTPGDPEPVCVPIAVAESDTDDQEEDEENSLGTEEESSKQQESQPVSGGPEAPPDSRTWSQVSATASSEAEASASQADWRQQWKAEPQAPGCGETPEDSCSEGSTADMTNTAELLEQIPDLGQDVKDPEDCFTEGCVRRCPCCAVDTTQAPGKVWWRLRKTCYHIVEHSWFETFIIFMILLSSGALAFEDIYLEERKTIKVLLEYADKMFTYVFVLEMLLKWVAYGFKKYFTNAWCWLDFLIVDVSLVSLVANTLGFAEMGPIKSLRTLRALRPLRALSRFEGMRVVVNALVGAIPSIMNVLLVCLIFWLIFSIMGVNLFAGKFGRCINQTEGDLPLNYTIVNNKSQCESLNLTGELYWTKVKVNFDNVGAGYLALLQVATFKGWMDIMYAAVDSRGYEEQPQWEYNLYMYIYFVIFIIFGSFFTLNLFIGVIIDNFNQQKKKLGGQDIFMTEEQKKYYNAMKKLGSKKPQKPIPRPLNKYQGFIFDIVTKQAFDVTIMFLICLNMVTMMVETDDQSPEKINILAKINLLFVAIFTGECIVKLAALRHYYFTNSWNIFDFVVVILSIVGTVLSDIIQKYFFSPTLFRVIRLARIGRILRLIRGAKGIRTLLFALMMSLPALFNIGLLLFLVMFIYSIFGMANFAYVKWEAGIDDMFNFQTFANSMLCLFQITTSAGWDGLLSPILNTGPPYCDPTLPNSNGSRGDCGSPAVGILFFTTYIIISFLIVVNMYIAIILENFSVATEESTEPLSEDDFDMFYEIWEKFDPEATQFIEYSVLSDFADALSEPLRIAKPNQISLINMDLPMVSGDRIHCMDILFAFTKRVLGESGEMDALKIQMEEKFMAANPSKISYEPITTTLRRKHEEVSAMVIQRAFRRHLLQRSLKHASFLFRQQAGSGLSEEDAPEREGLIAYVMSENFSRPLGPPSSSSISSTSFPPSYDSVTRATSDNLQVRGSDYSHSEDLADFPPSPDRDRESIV
Sequence of EBOV-GPcl/NPC1-domain C interaction (Q05320 33-190 limits assumed): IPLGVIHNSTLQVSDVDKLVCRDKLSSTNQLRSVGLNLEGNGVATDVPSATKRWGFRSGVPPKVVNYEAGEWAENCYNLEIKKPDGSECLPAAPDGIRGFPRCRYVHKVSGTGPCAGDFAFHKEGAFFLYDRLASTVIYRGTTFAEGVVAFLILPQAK
Sequence of EBOV-GPcl/NPC1-domain C interaction (Q05320 502-676 limits assumed): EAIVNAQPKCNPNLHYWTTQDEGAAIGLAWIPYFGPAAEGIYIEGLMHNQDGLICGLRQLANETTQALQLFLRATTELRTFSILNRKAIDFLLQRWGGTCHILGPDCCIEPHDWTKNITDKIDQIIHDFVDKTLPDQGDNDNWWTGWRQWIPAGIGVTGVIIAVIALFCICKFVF

O=C(Nc1ccccc1)c1ccc(-c2ccc(OC3CCNCC3)cc2)s1 [compound 57, N-Phenyl-5-(4-(piperidin-4-yloxy)phenyl)thiophene-2-carboxamide]
CC50 at 24 h (in vitro [1]): 11 µM | half-life at 1 h, 10 µM (in vitro [2]): 0.483 ± 0.0833 h | IC50 (hERG potassium channel [3]): ~50 µM | inhibition at 10 µM [4]: 24% | half-life at 24 h (in vivo [5]; ip, 10 mg/kg): 5.18 h | Cmax (in vivo [5]; ip, 10 mg/kg): 1680 ng/mL | Cmax at 24 h (in vivo [5]; ip, 10 mg/kg): 1040 ng/mL | Tmax (in vivo [5]; ip, 10 mg/kg): 4 h | Tmax at 24 h (in vivo [5]; ip, 10 mg/kg): 0.5 h | half-life at 24 h (in vivo [5]; po, 50 mg/kg): 8.76 h | Cmax (in vivo [5]; po, 50 mg/kg): 773 ng/mL | Cmax at 24 h (in vivo [5]; po, 50 mg/kg): 5600 ng/mL | Tmax (in vivo [5]; po, 50 mg/kg): 4 h | Tmax at 24 h (in vivo [5]; po, 50 mg/kg): 2 h | MTD (in vivo [6]): 100 mg/kg | inhibitory effect on EBOV-GPcl/NPC1-domain C interaction (in words) [7]: comparable effect than the control imipramine | IC50 (Nav1.5): > 50 µM | half-life at 1 h, 10 µM (in vitro [8]): 2.17 ± 0.15 h | EC50 [9]: 1.68 µM | EC50 [10]: 0.19 µM | brain concentration ([11]; ip, 10 mg/kg): 4430 nM | estimated plasma concentration ([11]; ip, 10 mg/kg): 2.74 µM | brain concentration ([11]; po, 50 mg/kg): 14800 nM | estimated plasma concentration ([11]; po, 50 mg/kg): 2.04 µM | EC50 [12]: 8.16 µM | IC50 (hERG potassium channel [13]): 48.9 µM

NC(=O)c1nc(F)cnc1O [Favipiravir, favipiravir]
IC50 (EBOV): 67 µM | CC50 (VeroE6 cells): > 1000 µM

O=C(NCCC1CCN(Cc2ccccc2)CC1)c1ccc(-c2ccccc2OC2CCNCC2)o1 [compound 101, N-(2-(1-Benzylpiperidin-4-yl)ethyl)-5-(2-(piperidin-4-yloxy)phenyl)furan-2-carboxamide]
CC50 at 24 h (in vitro [1]): 90 µM | SI (CC50/EC50) [14]: 18.7 | inhibition at 10 µM [4]: 39% | EC50 [10]: 9.5 µM | SI (CC50/EC50) [15]: 9.5 | EC50 [12]: 4.81 µM

O=C(NCCC1CCN(Cc2ccccc2)CC1)c1ccc(-c2ccccc2OC2CCNCC2)s1 [compound 51, N-(2-(1-Benzylpiperidin-4-yl)ethyl)-5-(2-(piperidin-4-yloxy)phenyl)thiophene-2-carboxamide]
CC50 at 24 h (in vitro [1]): 19.5 µM | SI (CC50/EC50) [14]: 2 | inhibition at 10 µM [4]: -148% | EC50 [10]: 2.96 µM | SI (CC50/EC50) [15]: 6.6 | EC50 [12]: 9.3 µM

O=C(Nc1ccccc1)c1ccc(-c2cccc(OC3CCNCC3)c2)o1 [compound 103, N-Phenyl-5-(3-(piperidin-4-yloxy)phenyl)furan-2-carboxamide]
CC50 at 24 h (in vitro [1]): 14.1 µM | SI (CC50/EC50) [14]: 1.7 | inhibition at 10 µM [4]: -18% | EC50 [10]: 9.26 µM | SI (CC50/EC50) [15]: 1.5 | EC50 [12]: 8.27 µM

COC(=O)c1ccc(COc2ccccc2CN2CCN(C(=O)CNC(=O)CC34CC5CC(CC(C5)C3)C4)CC2)cc1 [3.47]
EC50 (EBOV): 0.16 µM

O=C(Nc1ccc(Cl)cc1)c1ccc(-c2cccc(OC3CCNCC3)c2)s1 [compound 54, N-(4-Chlorophenyl)-5-(3-(piperidin-4-yloxy)phenyl)thiophene-2-carboxamide]
CC50 at 24 h (in vitro [1]): 10 µM | SI (CC50/EC50) [14]: 2.8 | inhibition at 10 µM [4]: 30% | EC50 [10]: 1.12 µM | SI (CC50/EC50) [15]: 8.9 | EC50 [12]: 3.53 µM

O=C(Nc1ccc(Cl)cc1)c1ccc(-c2ccc(OC3CCNCC3)cc2)s1 [compound 58, N-(4-Chlorophenyl)-5-(4-(piperidin-4-yloxy)phenyl)thiophene-2-carboxamide]
CC50 at 24 h (in vitro [1]): 10 µM | SI (CC50/EC50) [14]: 1.39 | inhibition at 10 µM [4]: -12% | EC50 [10]: 2.42 µM | SI (CC50/EC50) [15]: 4.13 | EC50 [12]: 7.18 µM

O=C(Nc1ccccc1)c1ccc(-c2cccc(OC3CCNCC3)c2)s1 [compound 53, N-Phenyl-5-(3-(piperidin-4-yloxy)phenyl)thiophene-2-carboxamide]
CC50 at 24 h (in vitro [1]): 33.9 µM | inhibition at 10 µM [4]: 7% | EC50 [9]: 3.05 µM | EC50 [10]: 0.3 µM | EC50 [12]: 7.19 µM

CN(C)CCOc1ccc(/C(=C(/CCCl)c2ccccc2)c2ccccc2)cc1 [Toremifene, toremifene]
CC50 (VeroE6 cells): 16 µM

O=C(Nc1ccc(Cl)cc1)c1ccc(-c2ccccc2OC2CCNCC2)o1 [compound 99, N-(4-Chlorophenyl)-5-(2-(piperidin-4-yloxy)phenyl)furan-2-carboxamide]
CC50 at 24 h (in vitro [1]): 20 µM | SI (CC50/EC50) [14]: 3.1 | inhibition at 10 µM [4]: 10% | EC50 [10]: 2.53 µM | SI (CC50/EC50) [15]: 7.9 | EC50 [12]: 6.35 µM

O=C(NCCc1ccccc1)c1cnc(-c2ccccc2OC2CCNCC2)s1 [compound 97, N-Phenethyl-2-(2-(piperidin-4-yloxy)phenyl)thiazole-5-carboxamide]
CC50 at 24 h (in vitro [1]): 91 µM | SI (CC50/EC50) [14]: 14.5 | inhibition at 10 µM [4]: 18% | EC50 [10]: 15.7 µM | SI (CC50/EC50) [15]: 5.8 | EC50 [12]: 6.27 µM

CN(C)CCCN1c2ccccc2CCc2ccccc21 [Imipramine, imipramine]
IC50 (EBOV like particles): 13.2 µM

O=C(Nc1ccc(Cl)cc1)c1ccc(-c2ccccc2OC2CCNCC2)s1 [compound 47, N-(4-Chlorophenyl)-5-(2-(piperidin-4-yloxy)phenyl)thiophene-2-carboxamide]
CC50 at 24 h (in vitro [1]): 27.9 µM | SI (CC50/EC50) [14]: 3.32 | inhibition at 10 µM [4]: -117% | EC50 [10]: 1.55 µM | SI (CC50/EC50) [15]: 18 | EC50 [12]: 8.4 µM

O=C(NCCc1ccccc1)c1ccc(-c2ccccc2OC2CCNCC2)s1 [compound 49, N-Phenethyl-5-(2-(piperidin-4-yloxy)phenyl)thiophene-2-carboxamide]
CC50 at 24 h (in vitro [1]): 29.2 µM | SI (CC50/EC50) [14]: 5.6 | inhibition at 10 µM [4]: -160% | EC50 [10]: 0.79 µM | SI (CC50/EC50) [15]: 36.9 | EC50 [12]: 5.2 µM

O=C(NCCC1CCN(Cc2ccccc2)CC1)c1cnc(-c2ccc(OC3CCNCC3)cc2)s1 [compound 79, N-(2-(1-Benzylpiperidin-4-yl)ethyl)-2-(4-(piperidin-4-yloxy)phenyl)thiazole-5-carboxamide]
CC50 (in vitro [1]): > 100 µM | SI (CC50/EC50) [14]: 12 | inhibition at 10 µM [4]: 39% | EC50 [10]: 7.83 µM | SI (CC50/EC50) [15]: 12.8 | EC50 [12]: 8.3 µM

O=C(Nc1ccccc1)c1ccc(-c2ccccc2OC2CCNCC2)s1 [compound 1, N-Phenyl-5-(2-(piperidin-4-yloxy)phenyl)thiophene-2-carboxamide]
CC50 at 24 h (in vitro [1]): 34 µM | inhibition at 10 µM [4]: 0.66% | half-life at 24 h (in vivo [5]; ip, 10 mg/kg): 1.96 h | Cmax at 24 h (in vivo [5]; ip, 10 mg/kg): 122 ng/mL | half-life at 24 h (in vivo [5]; po, 50 mg/kg): 5.6 h | inhibitory effect on EBOV-GPcl/NPC1-domain C interaction (in words) [7]: comparable effect than the control imipramine | IC50 (Nav1.5): 20.4 µM | EC50 [9]: 2.64 µM | EC50 [10]: 1.5 µM | brain concentration ([11]; ip, 10 mg/kg): 330 nM | estimated plasma concentration ([11]; ip, 10 mg/kg): 0.32 µM | brain concentration ([11]; po, 50 mg/kg): 810 nM | estimated plasma concentration ([11]; po, 50 mg/kg): 0.29 µM | EC50 [12]: 5.91 µM | IC50 (hERG potassium channel [13]): 10.6 µM

O=C(Nc1ccc(N2CCOCC2)cc1)c1ccc(-c2ccccc2OC2CCNCC2)s1 [compound 50, N-(4-Morpholinophenyl)-5-(2-(piperidin-4-yloxy)phenyl)thiophene-2-carboxamide]
CC50 at 24 h (in vitro [1]): 22 µM | SI (CC50/EC50) [14]: 2.26 | inhibition at 10 µM [4]: -31% | EC50 [10]: 7.74 µM | SI (CC50/EC50) [15]: 2.8 | EC50 [12]: 9.7 µM
